Tests used:
MCF-7 (breast carcinoma) = assay: Calcein AM cytotoxicity assay, MCF7; assay type: cell-based; details: 72 hours incubation
From the text: (§1) Because toxic compounds negatively influence metabolic processes in cells, many standard cytotoxicity assays are based on measurement of metabolisation rate of various artificial substrates. Resulting product is then quantified e.g. by means of spectrometry. The assays can be easily modified for use in 96-well plates. For evaluation of cytotoxic effect of the novel substituted 9-substituted cytokinin derivatives of this invention, a microtiter assay based on quantification of metabolisation of Calcein AM was used. The assay is widely used in drug screening programs and in chemosensitivity testing. In the living cells, Calcein AM is enzymatically hydrolysed and accumulation of resulting calcein is manifested by green fluorescence.
(§2) In the routine screening the following cell lines have been used: CEM (T-lymphoblastoid leukemia), HL-60 (promyelocytic leukemia), K-562 (human erythroleukemia), MCF-7 (breast carcinoma), HOS (human osteogenic sarcoma), and G-361 (human malignant melanoma). Normal human fibroblasts BJ were used as a control for routine screening of the compounds. The cells were kept in Nunc/Corning 80 cm^2 plastic bottles and grown in cell culture medium (DMEM containing 5 g/l glucose, 2 mM glutamine, 100 U/ml penicilline, 100 μg/ml streptomycine, 10% fetal bovine serum and sodium hydrogencarbonate), the compounds were prepared according to the procedure of the present invention.
(§3) The cell suspensions were prepared and diluted according to the particular cell type and the expected target cell density (2.500-30.000 cells per well based on cell growth characteristics) and pippetted (80 μl) into 96-well plates. Inoculates were allowed a pre-incubation period of 24 hours at 37° C. and 5% CO2 for stabilisation. Tested compound was added in total volume of 20 μl of water at time zero. Usually, test compound was evaluated at six 3-fold dilutions. In routine testing, the highest concentration tested was 166.7 μM. All drug concentrations were tested in triplicates. Incubations of cells with the test compounds lasted for 72 hours at 37° C., in 5% CO2 atmosphere and 100% humidity. At the end of incubation period Calcein AM in PBS was added into final concentration of 1 μg/ml. After another 1 hour of incubation fluorescence (FD) was measured with the Labsystem FIA Reader Fluoroscan Ascent (Microsystems). Tumor cell survival (TCS) was estimated using the following equation: […]=(FDdrug exposed well/FDcontrol well)×100%. The GI50 value, the drug concentration causing 50% reduction of esterase activity, was calculated from the obtained dose response curves (FIG. 1).
(§4) Cytoxicity of novel compounds was tested on panel of cell lines of different histogenetic and species origin (Table 3). […] The effective novel derivatives killed tumour cells in concentrations close to 0.1-50 μM.

[1] = tested on: HL-60 (promyelocytic leukemia); assay: Calcein AM cytotoxicity assay, HL60; assay type: cell-based, human
From the text: as §1, §2, §3, §4

[2] = tested on: G-361 (human malignant melanoma); assay: Calcein AM cytotoxicity assay, G-361; assay type: cell-based; details: 72 hours incubation
From the text: as §1, §2, §3, §4

[3] = tested on: Normal human fibroblasts BJ; assay: Calcein AM cytotoxicity assay, BJ; assay type: cell-based; details: 72 hours incubation
From the text: as §1, §2, §3, §4

[4] = tested on: K-562 (human erythroleukemia); assay: Calcein AM cytotoxicity assay, K-562; assay type: cell-based
From the text: as §1, §2, §3, §4

[5] = tested on: HOS (human osteogenic sarcoma); assay: Calcein AM cytotoxicity assay, HOS; assay type: cell-based; details: 72 hours incubation
From the text: as §1, §2, §3, §4

[6] = tested on: CEM (T-lymphoblastoid leukemia); assay: Calcein AM cytotoxicity assay, CEM; assay type: cell-based; details: 72 hours incubation, Calcein AM
From the text: as §1, §2, §3, §4

[7] = tested on: cytokinin-dependent tobacco callus Nicotiana tabacum L. cv. Wisconsin 38; assay: Growth of cytokinin-dependent tobacco callus; assay type: cell-based; details: for Activity (%) [10^−5 mol · l^−1 KR = 100%]: at concentration with highest activity, relative to control cytokinin; for Concentration with highest activity: tobacco callus fresh weight after four weeks
Description: Cytokinin effect of newly prepared derivatives was tested using cytokinin-dependent tobacco callus. The cytokinin-dependent tobacco callus Nicotiana tabacum L. cv. Wisconsin 38 was maintained at 25° C. in darkness on modified MS medium, containing per 1 liter: 4 μmol of nicotinic acid, 2.4 μmol of pyridoxine hydrochloride, 1.2 μmol of thiamine, 26.6 μmol of glycine, 1.37 μmol of glutamine, 1.8 μmol of myo-inositol, 30 g of sucrose, 8 g of agar, 5.37 μmol of NAA and 0.5 μmol of the compound tested. Subcultivation was carried out every three weeks. Fourteen days before the bioassay, the callus tissue was transferred to the media without 6-benzylaminopurine. The biological activity was determined from the increase of the fresh callus weight after four weeks of cultivation. Five replicates were prepared for each concentration of the compound tested and the entire test was repeated twice. […] The compounds to be tested were dissolved in dimethylsulfoxide (DMSO) and the solution brought up to 10^−3 M with distilled water. […] The stimulatory activity was calculated from the dose-dependent fresh weight callus growth curves.
From the obtained data, the concentration with the highest activity was selected for each compound tested. Relative activity of the compound at this concentration was calculated (Table 5). […]

Compound | GI50 (MCF-7 (breast carcinoma)) [µM] | GI50 ([1]; 72 hours incubation) [µM] | GI50 [2] [µM] | GI50 [3] [µM] | GI50 ([4]; 72 hours incubation) [µM] | GI50 [5] [µM] | GI50 [6] [µM] | Activity (%) [10^−5 mol · l^−1 KR = 100%] [7] [%] | Concentration with highest activity [7] | GI50 (MCF-7 (breast carcinoma); Homo sapiens) [µM] | GI50 ([1]; Homo sapiens, HL-60, 72 hours incubation) [µM] | GI50 ([2]; Homo sapiens) [µM] | GI50 ([3]; Homo sapiens, Fibroblast) [µM] | GI50 ([4]; Homo sapiens, K562, 72 hours incubation) [µM] | GI50 ([5]; Homo sapiens) [µM]
O=P(O)(O)OC[C@H]1O[C@@H](n2cnc3c(NCc4cc(Cl)ccc4O)ncnc32)[C@H](O)[C@@H]1O [Compound 47, 6-(2-hydroxy-5-chlorobenzylamino)purine riboside-5′-monophosphate] | 18 | 0.47 | 12.5 | 63.4 | 15.7 | 10.6 | 0.6 | – | – | – | – | – | – | – | –
COc1cccc(CNc2ncnc3c2ncn3[C@@H]2O[C@H](COP(=O)(O)O)[C@@H](O)[C@H]2O)c1 [Compound 16, 6-(3-methoxybenzylamino)purine riboside-5′-monophosphate] | > 167 | 4.9 | > 167 | > 167 | > 167 | > 167 | 7.6 | 102 ± 1 | 10^−6 mol · l^−1 | – | – | – | – | – | –
COc1ccccc1CNc1ncnc2c1ncn2[C@@H]1O[C@H](COP(=O)(O)O)[C@@H](O)[C@H]1O [Compound 15, 6-(2-methoxybenzylamino)purine riboside-5-monophosphate] | > 167 | 2.3 | > 167 | > 167 | 11.2 | 21.2 | 3.2 | 108 ± 1 | 10^−5 mol · l^−1 | – | – | – | – | – | –
O=P(O)(O)OC[C@H]1O[C@@H](n2cnc3c(NCc4cc(F)ccc4O)ncnc32)[C@H](O)[C@@H]1O [Compound 48, 6-(2-hydroxy-5-fluorobenzylamino)purine riboside-5′-monophosphate] | 16 | 0.53 | 10.7 | 58.7 | 13.4 | 9.1 | 0.5 | – | – | – | – | – | – | – | –
O=P(O)(O)OC[C@H]1O[C@@H](n2cnc3c(NCc4ccc(O)cc4)ncnc32)[C@H](O)[C@@H]1O [Compound 23, 6-(4-hydroxybenzylamino)purine riboside-5′-monophosphate] | > 167 | 9.5 | > 167 | > 167 | > 167 | > 167 | 39.7 | – | – | – | – | – | – | – | –
Nc1ncnc2c1ncn2[C@@H]1O[C@H](CO)[C@@H](O)[C@H]1O [adenosine] | – | – | – | – | – | – | > 167 | – | – | > 167 | > 167 | > 167 | > 167 | > 167 | > 167

— patent US9073961B2, “Substitution derivatives of N6 -benzyladenosine-5′-monophosphate, methods of preparation thereof, use thereof as medicaments, and therapeutic preparations containing these compounds” (UNIVERZITA PALACKEHO V OLOMOUCI, priority 2010, dated 2015)
